From patent US20100168228A1, “NOVEL CHEMOTHERAPEUTIC AGENTS AGAINST INFLAMMATION AND CANCER” (RELIANCE LIFE SCIENCES PVT. LTD., priority 2006, published 2010) come the findings set out here.

The subject of experiment [1] is NF-κB. The experiment in a line: NF-κB activation assay (Transfactor ELISA on nuclear extracts), Jurkat. Particulars: pretreated 3 h. Format: cell-based, human. As to the method:
Cell pellet was resuspended in lysis buffer (10 mM HEPES, pH 7.9, 1.5 mM MgCl2, 10 mM KCl, 1 mM PMSF, 1 mMDTT, 0.5% NP 40, 0.1 mM EGTA and 0.1 mM EDTA) and allowed to swell on ice for 15 min, followed by centrifugation at 3300×g for 20 min. The cell pellet was resuspended in a volume of lysis buffer equal to the cell pellet volume. The cell suspension was slowly drawn down into a syringe and ejected the content in a single stroke. Disrupted cells were incubated for 15 min on ice, and the disrupted cell suspension was centrifuged at 10,000×g for 20 min at 4° C. Nuclear pellet was resuspended in a volume of extraction buffer (20 mM HEPES; pH 7.9, 25% glycerol, 1.5 mM MgCl2, 420 mM NaCl, 0.1 mM EDTA, 0.1 mM EGTA, 1 mM PMSF and 1 mM DTT) and incubated on ice for 30 min. The nuclear suspension was centrifuged at 21,000×g for 15 min at 4° C. and the supernatant was collected as nuclear extract and stored at −70° C. Protein concentration was estimated using standard Bradford method.
To determine NF-κB activation, transcription profiling was done with the BD Mercury Transfactor kit obtained from BD Biosciences. This method provides rapid, high-throughput detection of specific transcription factors eg NFκB in the nuclear extract. Using an enzyme-linked immunosorbent assay (ELISA)-based format, the Transcription Factor kit detects the DNA binding by specific transcription factors.
The assay was performed by using wells coated with oligonucleotides having the consensus DNA binding sites for the specific transcription factors. 50 μg of the nuclear extract proteins were incubated in the wells precoated with their specific oligonucletides, and allowed the activated NFκB to bind to their consensus sequence. Bound transcription factor was detected by a specific Primary Antibody. A horseradish peroxidase conjugated Secondary Antibody was then used to detect the bound Primary Antibody. After addition of the substrate, the Absorbance was recorded at 655 nm. […]
A general note: ELISA stands for enzyme-linked immunosorbent assay.

Experiment [2] deals with NF-κB. The experiment in a line: NF-κB activation assay, RAW 264.7. Format: cell-based, mouse. The following applies: RAW 264.7, 100 ng/ml LPS 30 min. As to the method:
FIG. 4: Effect of CAMVE on NF-κB activation in different cell lines. A. HeLa, MCF-7, U937, were incubated at 37° C. for 3 h with 15 μM dose of CAMVE and then stimulated with 0.1 nM TNF for 30 min. After these treatments, nuclear extracts were prepared and assayed for NF-κB using BD Transfactor ELISA method. B. RAW 264.7 cells pretreated with indicated doses of CAMVE were stimulated with 100 ng/ml LPS for 30 min and assayed for NF-κB activation.
Cell pellet was resuspended in lysis buffer (10 mM HEPES, pH 7.9, 1.5 mM MgCl2, 10 mM KCl, 1 mM PMSF, 1 mMDTT, 0.5% NP 40, 0.1 mM EGTA and 0.1 mM EDTA) and allowed to swell on ice for 15 min, followed by centrifugation at 3300×g for 20 min. The cell pellet was resuspended in a volume of lysis buffer equal to the cell pellet volume. The cell suspension was slowly drawn down into a syringe and ejected the content in a single stroke. Disrupted cells were incubated for 15 min on ice, and the disrupted cell suspension was centrifuged at 10,000×g for 20 min at 4° C. […]
The assay was performed by using wells coated with oligonucleotides having the consensus DNA binding sites for the specific transcription factors. […] Bound transcription factor was detected by a specific Primary Antibody. […] After addition of the substrate, the Absorbance was recorded at 655 nm.

Another experiment deals with caspase 3. The experiment is described as follows: Caspase 3 activity assay, Jurkat lysates. Format: cell-based, human. Particulars: 16 and 24 h exposure. As to the method: FIG. 14: Induction of Caspase 3 by compound 27. Jurkat cells were treated with indicated concentrations of the compound for 16 and 24 h and harvested in lysis buffer. Cellular lysates were incubated with Ac-DEVD-pNA as described in the “Materials and Methods” for 2 h at 37° C. Absorbance was recorded at 405 nm.
Caspase 3 activity assay: To evaluate caspase 3 activity, cell lysates were prepared after their respective treatments with the compounds. 200 μg of the cell lysates were incubated with 50 μM caspase 3 substrate […] in 100 μl reaction buffer (1% NP-40, […] tris-HCl, pH7.5, 137 mM NaCl, and 10% glycerol) and incubated for 2 h at 37° C. The release of chromophore pNA was monitored spectrophotometrically at 405 nm.

The test system of a further experiment is U937 cell line. The experiment is described as follows: Apoptosis by PARP cleavage (FACS), U937. The following applies: U937, 100 nM, 24 h. The class given is cell-based, human. As to the method: FIG. 19: Effect of compound 27 on the apoptosis in cells with different p53 status. Extent of apoptosis in different cells was measured by staining the cells for PARP cleavage followed by FACS analysis. Cells were treated with 100 nM of the compound for 24 h and the level of apoptosis was seen. Percentage apoptotic populations are represented as the M2 gated population.
PARP Cleavage Assay using Flow Cytometry: Extent of PARP cleavage is determined using polyclonal antibody specifically recognizing the 85 kDa fragment of cleaved PARP (NSB 699 Novus Biologicals) and can be used as a marker for detecting apoptotic cells. Treated cells were fixed with 70% chilled ethanol and permeabilized for 30 min at RT (PBS+0.5% BSA+0.02% NaN3+0.5% saponin) and stained with anti PARP-FITC (10 μl/10^6 cells) for one hour at RT. Cells were washed twice with wash buffer (PBS+1% heat inactivated FBS) and analysed using FACS.

Each structure is given as a SMILES string.

Turning to `COC(=O)c1ccc(OC(=O)/C=C/c2ccc(O)c(O)c2)c(OC)c1` [compound 1, Methyl 4-{[(2E)-3-(3,4-dihydroxyphenyl)prop-2-enoyl]oxy}-3-methoxybenzoate], in the experiment on NF-κB [1] (0.1 nM TNF 30 min), the “TNF induced NF-κB activation” value is “inhibited this activation in a concentration dependent manner” and the “concentration of maximum inhibition of TNF induced NF-κB activation” value is 15 µM. Moreover, the “LPS induced NF-κB activation” value in the experiment on NF-κB [1] (100 ng/ml SA-LPS 30 min) is on record as “blocked by CAMVE”. In addition, the “LPS induced NF-κB activation” value in the experiment with NF-κB [2] is listed as “inhibited NF-κB activation in murine cells”.
`COc1cc([C@@H]2Oc3c(OC)cc(/C=C/C(=O)O)cc3[C@H]2C(=O)O)ccc1O` [compound 27, 5-[(E)-2-carboxyvinyl]-2β-(4-hydroxy-3-methoxyphenyl)-7-methoxy-2,3-dihydro-1-benzofuran-3α-carboxylic acid]: the “caspase 3 activity (DVED-pNA cleavage)” value in the experiment on caspase 3 was “dose dependent increase in DVED-pNA cleavage”. For the same compound, in the experiment on U937 cell line, the “level of apoptosis (PARP cleavage)” value is “does not show induction of apoptosis”.
